Test results taken from patent US4341798A, “Amide derivatives of p-isobutyl-phenyl-propionic acids and related pharmaceutical compositions” (Laboratori Prophin S.p.A., priority 1980, dated 1982).
Values joined by “and” are separate entries in the source; they are usually repeats but may differ in a detail not shown here. Equal values may be shown once. Read-outs that look alike come from different tables or passages of the source.

Legend:
[1] = Acute toxicity per os in the mouse; format: in vivo
Excerpt: The compounds of the invention have been subjected to pharmacological tests, showing that they have a modeste or even negligible toxicity.

[2] = Oedema induced by kaolin in the rat (chronic inflammation); format: in vivo; details: 100 mg/kg p.o., controls 13
Excerpt: (§1) The anti-inflammatory activity has been tested by the classic tests of the oedema induced by kaolin and egg white, which repeat two significant and different phases in the pathogenesis of the inflammatory process.
(§2) The kaolin, injected in the tibio-tarsal connection of the rat, gives place to a chronic inflammation, whereas the egg white, injected in the subplantar area of the rat, causes an acute inflammatory state.

[3] = Oedema induced by egg white in the rat (acute inflammation); format: in vivo; details: 100 mg/kg p.o., controls 20
Excerpt: as §1, §2

[4] = Acute toxicity by oral route in the rat; format: in vivo
[5] = Acute toxicity by intraperitoneal route in the mouse; details: in vivo, ip
[6] = Teratogenic or embryotoxic action in the mouse; format: in vivo
[7] = Teratogenic or embryotoxic action in the rabbit; format: in vivo
[8] = (A) Inhibition of the oedema induced by carragenin in the rat paw; format: in vivo; details: for ED50: rat paw
Excerpt: (A) Inhibition of the oedema induced by carragenin in the […]. Arch. Int. Pharmacodyn. 99,474. 1954). […] The subject oedema was induced in the rat and in the control animals caused a volume increase of the paw by 57.55%.

[9] = (B) Inhibition of the arthritis induced by Freund adjuvant in the rat; format: in vivo
Excerpt: (B) Inhibition of the arthritis induced by Freund adjuvant in the rat. (Newbould B.B. Brit. Journ. of Pharmacol. 21,127, 1963).

[10] = (C) Analgesic activity on the stretching induced by acetic acid in the mouse; format: in vivo
Excerpt: (C) Analgesic activity on the "stretching" induced by acetic acid in the mouse.
(Fennessy M. R., Lee C. R. "Methods in Narcotic Research" Eds. Ehrenpreise Neidle Dekker--New York 1975).

[11] = (D) Analgesic activity in the Flinch-jump test in the rat; format: in vivo
Excerpt: (D) Analgesic activity in the Flinch-jump test in the rat.
(Turner R. A. "Screening methods in Pharmacology" Accademic Press--New York 1965).

[12] = Therapeutical indexes (TD50 of 28 day subacute toxicity versus ED50 of tests A-D); format: in vivo; details: TD50 (28 days) versus ED50 of tests A-D
[13] = Solubility; format: physicochemical
[14] = rat
[15] = for Mortality in 28 days: male and female rats
[16] = in vivo; details: rat, ip
[17] = in vivo; details: rat
[18] = molecular weight taken into consideration, read-out: ED50, inhibition of carragenin oedema (molar basis)
[19] = read-out: ED50, inhibition of carragenin oedema
[20] = rat, molar basis, read-out: ED50, Freund adjuvant arthritis (molar basis)
[21] = mouse, molar basis, read-out: ED50, stretching induced by acetic acid (molar basis)
[22] = mouse, read-out: ED50, stretching induced by acetic acid
[23] = Flinch-jump test, rat, read-out: ED50, dose causing a 50% increase of the algogenic stimulus
[24] = rat, molar basis, read-out: ED50, Flinch-jump test (molar basis)

Compound: CC(C)Cc1ccc(C(C)C(=O)Nc2cccc(C(F)(F)F)c2)cc1 (stereo not shown) [BT-03, p-isobutyl-phenyl-propionamide of metatrifluorotoluidine]
- LD50 by oral route in the mouse [1]: has not permitted as well to determine any LD50 value
- Kaolin test increase % [2]: 7 ± 5.5%
- Egg white test increase % [3]: 10 ± 5.1%
- acute toxicity ([4]; both by oral and by intraperitoneal route): very low acute toxicity
- LD50 ([4]; rat, in vivo, po, 4000 mg/kg): > 4000 mg/kg
- LD50 ([5]; female mice): 1190 mg/kg
- LD50 ([5]; male mice): 940 mg/kg
- teratogenic or embryotoxic action [6]: have not demonstrated any teratogenic or embryotoxic action
- teratogenic or embryotoxic action [7]: have not demonstrated any teratogenic or embryotoxic action
- times less active than Naproxene ([8]; molar basis): about 1.4 times
- times more active than Ibuprofen ([8]; molar basis): 2.8 times
- ED50 [8, 18]: 290 µmol/kg
- ED50 [8, 19]: 103 mg/kg
- ED50 ([9]; Freund adjuvant, rat, read-out: ED50, dose which causes the volume increase of the paw to be reduced by 50%): 87 mg/kg
- activity with respect to Ibuprofen ([9]; proportionally to the administered doses): superior as regards the activity and of lower toxicity with respect to Ibuprofen
- inhibition of lesions directly induced by Freund adjuvant in the injected paw ([9]; rat): inhibit the lesions directly induced by the Freund adjuvant in the injected paw
- inhibition of the development of secundary lesions ([9]; rat): capable of inhibiting the development of the secundary lesions
- ED50 [9, 20]: 250 µmol/kg
- times more active than Ibuprofen ([10]; molar basis): about 1,4 times
- inhibition of stretching ([10]; mouse): does inhibit the stretching induced by acetic acid proportionally to the administered dose
- ED50 [10, 21]: 350 µmol/kg
- ED50 [10, 22]: 123 mg/kg
- ED50 [11, 23]: 129 mg/kg
- activity, times greater than that of the reference substance (Ibuprofen) ([11]; molar basis): about 1.4 times
- increase of the algogenic threshold ([11]; rat): increase of the algogenic threshold, proportionally to the administered dose
- ED50 [11, 24]: 370 µmol/kg
- therapeutical index compared with Ibuprofen [12]: A constant advantage
- solubility [13]: insoluble in water and soluble in most organic solvents
- Mortality after 7 days ([14]; in vivo): 1/6 and 5/6 and 6/6
- animals died during the test period ([15]; rat, in vivo, 200 mg/kg): two
- LD50 ([16]; LD50 by intraperitoneal route in the rat, female rats): 1760 mg/kg
- LD50 ([16]; LD50 by intraperitoneal route in the rat, male rats): 1620 mg/kg
- LD50 ([16]; LD50 ± f.l. (P 0,05), intraperitoneal, f.l. = fiduciary limits): 1200 ± 264 mg/kg
- TD50 at 672 h [17]: 660 µmol/kg

Compound: CC(C)Cc1ccc(C(C)C(=O)O)cc1 (stereo not shown) [Ibuprofen, p-isobutyl-phenyl-propionic acid]
- ED50 [8, 18]: 820 µmol/kg
- ED50 [8, 19]: 170 mg/kg
- ED50 [9, 20]: 300 µmol/kg
- ED50 [10, 21]: 500 µmol/kg
- ED50 [10, 22]: 105 mg/kg
- ED50 [11, 23]: 108 mg/kg
- ED50 [11, 24]: 520 µmol/kg
- Mortality after 7 days ([14]; 250 mg/kg intraperitoneal): 0/6
- Mortality after 7 days ([14]; 360 mg/kg intraperitoneal): 2/6
- Mortality after 7 days ([14]; 520 mg/kg intraperitoneal): 5/6
- Mortality after 7 days ([14]; 750 mg/kg intraperitoneal): 6/6
- Mortality in 28 days ([15]; 25 mg/kg): 0/10
- Mortality in 28 days ([15]; 50 mg/kg): 3/10
- Mortality in 28 days ([15]; 100 mg/kg): 4/10
- Mortality in 28 days ([15]; 200 mg/kg): 5/10
- TD50 at 672 h [17]: 590 µmol/kg

Compound: COc1ccc2cc([C@H](C)C(=O)O)ccc2c1 [Naproxene, d-2(6'-methoxy-2'-naphtyl)-propionic acid]
- ED50 [8, 18]: 210 µmol/kg
- ED50 [8, 19]: 47.9 mg/kg
- Mortality in 28 days ([15]; 25 mg/kg): 2/10
- Mortality in 28 days ([15]; 50 mg/kg): 6/10
- Mortality in 28 days ([15]; 100 mg/kg): 10/10

Compound: CC(C)Cc1ccc(C(C)C(=O)NC(CCC(=O)O)C(=O)O)cc1 (stereo not shown) [glutamic amide of the p-isobutyl-phenyl-propionic acid]
- solubility [13]: not soluble in water, diluted HCl and cyclohexane

Compound: lysinamide of p-isobutyl-phenyl-propionic acid
- Kaolin test increase % [2]: 7.1 ± 5.3%
- Egg white test increase % [3]: 11 ± 5.6%
